From patent US7300946B2, “N-(substituted arylmethyl)-4-(disubstituted methyl) piperidines and pyridines” (Bayer CropScience AG, priority 2002, dated 2007)

Tested on: tobacco budworm (Heliothis virescens [Fabricius])
Assay: surface-treated diet test against the tobacco budworm
Type: in vivo
Settings: tobacco budworm second instar larvae, 0.25 millimoles of candidate insecticide on the surface of the diet, five-day exposure; for Percent Mortality: compared to total number of insects infested; for Percent Growth Inhibition: inhibition of insect weight relative to untreated controls
How it was run: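 Wheat germ artificial diet surface-treated with 40 µL of 50 mM DMSO stock diluted 1:7 in 1:1 water/acetone (0.25 millimolar on diet), or sub-multiples for rate tests. One second-instar larva per well, 25° C, 60% RH, 5 days; percent weight inhibition vs DMSO controls and percent mortality.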

O=C(Nc1cc(F)cc(F)c1)OC(c1ccc(C(F)(F)F)cc1)C1CC[N+]([O-])(Cc2ccc(Oc3ncc(Cl)cc3Cl)cc2)CC1 (stereo not drawn) [Compound 758]
Percent Mortality: 100% | Percent Growth Inhibition: 100%

CCON=Cc1ccc(CN2CCC(C(OC(=O)Nc3ccc(Cl)cc3)c3ccc(Cl)cc3)CC2)cc1 (stereo not drawn) [Compound 523]
Percent Mortality (surface-treated diet): 100% | Percent Growth Inhibition (surface-treated diet): 100%

O=C(Nc1cc(Cl)nc(Cl)c1)OC(c1ccc(C(F)(F)F)cc1)C1CCN(Cc2ccc(Oc3ccccn3)cc2)CC1 (stereo not drawn) [Compound 451]
Percent Mortality (surface-treated diet): 100% | Percent Growth Inhibition (surface-treated diet): 100%

CCn1nnc(-c2ccc(CN3CCC(C(OC(=O)Nc4ccc(Cl)c(C(F)(F)F)c4)c4ccc(C(F)(F)F)cc4)CC3)cc2)n1 (stereo not drawn) [Compound 292]
Percent Mortality (surface-treated diet): 100% | Percent Growth Inhibition (surface-treated diet): 100%

CCn1nnc(-c2ccc(CN3CCC(C(OC(=O)c4ccc(C(F)(F)F)cc4)c4ccc(OC(F)(F)F)cc4)CC3)cc2)n1 (stereo not drawn) [Compound 307]
Percent Mortality (surface-treated diet): 100% | Percent Growth Inhibition (surface-treated diet): 92%

Cc1ccc(S(=O)(=O)NC(=O)OC(c2ccc(C(F)(F)F)cc2)C2CCN(Cc3ccc(Oc4ccccn4)cc3)CC2)cc1 (stereo not drawn) [Compound 696]
Percent Mortality (surface-treated diet): 0% | Percent Growth Inhibition (surface-treated diet): 32%

O=C(Nc1cc(F)cc(F)c1)OC(c1ccc(C(F)(F)F)cc1)C1CCN(Cc2ccc(Oc3ncccc3Cl)cc2)CC1 (stereo not drawn) [Compound 683]
Percent Mortality (surface-treated diet): 100% | Percent Growth Inhibition (surface-treated diet): 100%

O=C(Nc1ccc(CN2CCC(=C(c3ccc(C(F)(F)F)cc3)c3ccc(C(F)(F)F)cc3)CC2)cc1)C(F)(F)F [Compound 53]
Percent Mortality (surface-treated diet): 0% | Percent Growth Inhibition (surface-treated diet): 100%

CNC(=S)OC(c1ccc(C(F)(F)F)cc1)C1CCN(Cc2ccc(Oc3ccccn3)cc2)CC1 (stereo not drawn) [Compound 772]
Percent Mortality: 0% | Percent Growth Inhibition: 78%

CC(C)OC(=O)Nc1ccc(C[N+]2([O-])CCC(C(OC(=O)Nc3cc(F)cc(F)c3)c3ccc(C(F)(F)F)cc3)CC2)cc1 (stereo not drawn) [Compound 746]
Percent Mortality: 100% | Percent Growth Inhibition: 100%

O=C(Nc1cccc(F)c1)OC(c1ccc(Cl)cc1)C1CCN(Cc2ccc(Oc3ncccn3)cc2)CC1 (stereo not drawn) [Compound 713]
Percent Mortality: 100% | Percent Growth Inhibition: 100%

CC(C)OC(=O)Nc1ccc(CN2CCC(=C(c3ccc(Cl)c(Cl)c3)c3ccc(Cl)c(Cl)c3)CC2)cc1 [Compound 795]
Percent Mortality: 50% | Percent Growth Inhibition: 94%

FC(F)(F)c1ccc(C(=C2CCN(Cc3ccc(Oc4ncccn4)cc3)CC2)c2ccccc2Cl)cc1 [Compound 814]
Percent Mortality: 100% | Percent Growth Inhibition: 100%

Cn1nnc(-c2ccc(CN3CCC(C(NC(=O)c4ccccc4)c4ccc(OC(F)(F)F)cc4)CC3)cc2)n1 (stereo not drawn) [Compound 321]
Percent Mortality (surface-treated diet): 17% | Percent Growth Inhibition (surface-treated diet): 95%

CCn1nnc(-c2ccc(CN3CCC(C(OC(=O)Nc4ccc(-c5ccccc5)cc4)c4ccc(Oc5ccccc5)cc4)CC3)cc2)n1 (stereo not drawn) [Compound 621]
Percent Mortality (surface-treated diet): 0% | Percent Growth Inhibition (surface-treated diet): 4%

FC(F)(F)c1ccc(C(OC(=S)Nc2cccc(C(F)(F)F)c2)C2CCN(Cc3ccc(Oc4ccccn4)cc3)CC2)cc1 (stereo not drawn) [Compound 692]
Percent Mortality (surface-treated diet): 100% | Percent Growth Inhibition (surface-treated diet): 100%

CCCOc1ccc(CN2CCC(C(OC(=O)Nc3ccc(C(F)(F)F)cc3)c3ccc(F)cc3)CC2)cc1 (stereo not drawn) [Compound 478]
Percent Mortality (surface-treated diet): 100% | Percent Growth Inhibition (surface-treated diet): 100%

CCn1nnc(-c2ccc(CN3CCC(C(OC(=O)Nc4ccc(F)c(F)c4)c4ccc(C)cc4)CC3)cc2)n1 (stereo not drawn) [Compound 597]
Percent Mortality (surface-treated diet): 100% | Percent Growth Inhibition (surface-treated diet): 100%

O=C(Nc1cc(F)cc(F)c1)OC(c1ccc(Cl)cc1)C1CCN(Cc2ccc(Oc3ncccn3)cc2)CC1 (stereo not drawn) [Compound 714]
Percent Mortality: 100% | Percent Growth Inhibition: 100%

O=C(NCc1ccccc1Cl)OC(c1ccc(C(F)(F)F)cc1)C1CCN(Cc2ccc(Oc3ccccn3)cc2)CC1 (stereo not drawn) [Compound 663]
Percent Mortality (surface-treated diet): 50% | Percent Growth Inhibition (surface-treated diet): 100%

Cc1ccc(NC(=O)NC(c2ccc(OC(F)(F)F)cc2)C2CCN(Cc3ccc(-c4nnn(C)n4)cc3)CC2)cc1 (stereo not drawn) [Compound 342]
Percent Mortality (surface-treated diet): 100% | Percent Growth Inhibition (surface-treated diet): 100%

CCCOC(=O)Nc1ccc(C[N+]2([O-])CCC(=C(c3ccc(C(F)(F)F)cc3)c3ccc(C(F)(F)F)cc3)CC2)cc1 (stereo not drawn) [Compound 102]
Percent Mortality (surface-treated diet): 100% | Percent Growth Inhibition (surface-treated diet): 100%

Fc1cccc(C(=C2CCN(Cc3ccc(Oc4ncccn4)cc3)CC2)c2ccc(C(F)(F)F)cc2)c1 [Compound 817]
Percent Mortality: 100% | Percent Growth Inhibition: 100%

CC(C)OC(=O)Nc1ccc(CN2CCC(=C(c3ccccc3)c3ccccc3)CC2)cc1 [Compound 793]
Percent Mortality: 0% | Percent Growth Inhibition: 76%

O=C(NCc1ccc(Cl)cc1Cl)OC(c1ccc(C(F)(F)F)cc1)C1CCN(Cc2ccc(Oc3ccccn3)cc2)CC1 (stereo not drawn) [Compound 678]
Percent Mortality (surface-treated diet): 100% | Percent Growth Inhibition (surface-treated diet): 100%

O=C(Nc1ccc(Cl)cc1)OC(c1ccc(C(F)(F)F)cc1)C1CCN(Cc2ccc(O)cc2)CC1 (stereo not drawn) [Compound 463]
Percent Mortality (surface-treated diet): 0% | Percent Growth Inhibition (surface-treated diet): 65%

Cn1nnc(-c2ccc(CN3CCC(C(NC(=O)Nc4ccc(I)cc4)c4ccc(OC(F)(F)F)cc4)CC3)cc2)n1 (stereo not drawn) [Compound 341]
Percent Mortality (surface-treated diet): 100% | Percent Growth Inhibition (surface-treated diet): 100%

O=C(CCN1CCC(=C(c2ccccc2)c2ccccc2)CC1)c1ccccc1 [Compound 85]
Percent Mortality (surface-treated diet): 100% | Percent Growth Inhibition (surface-treated diet): 100%

Cn1nnc(-c2ccc(CN3CCC(C(NC(=O)c4ccc(I)cc4)c4ccc(OC(F)(F)F)cc4)CC3)cc2)n1 (stereo not drawn) [Compound 329]
Percent Mortality (surface-treated diet): 50% | Percent Growth Inhibition (surface-treated diet): 99%

O=C(Nc1ccc(F)cc1)OC(c1ccc(C(F)(F)F)cc1)C1CCN(Cc2ccc(-c3csnn3)cc2)CC1 (stereo not drawn) [Compound 559]
Percent Mortality (surface-treated diet): 17% | Percent Growth Inhibition (surface-treated diet): 97%

O=C(NS(=O)(=O)c1ccc(Cl)cc1)OC(c1ccc(C(F)(F)F)cc1)C1CCN(Cc2ccc(Oc3ccccn3)cc2)CC1 (stereo not drawn) [Compound 668]
Percent Mortality (surface-treated diet): 0% | Percent Growth Inhibition (surface-treated diet): 25%

Cn1nnc(-c2ccc(CN3CCC(C(NCc4ccccc4F)c4ccc(OC(F)(F)F)cc4)CC3)cc2)n1 (stereo not drawn) [Compound 313]
Percent Mortality (surface-treated diet): 100% | Percent Growth Inhibition (surface-treated diet): 100%

O=C(Nc1cc(F)cc(F)c1)OC(c1ccc(C(F)(F)F)cc1)C1CCN(Cc2ccc(Oc3ccccn3)cc2)CC1 (stereo not drawn) [Compound 240]
Percent Mortality (surface-treated diet): 100% | Percent Growth Inhibition (surface-treated diet): 100%

CCn1nnc(-c2ccc(CN3CCC(C(OC(=O)Nc4cccc(C(F)(F)F)c4)c4ccc(C(F)(F)F)cc4)CC3)cc2)n1 (stereo not drawn) [Compound 288]
Percent Mortality (surface-treated diet): 100% | Percent Growth Inhibition (surface-treated diet): 100%

O=C(Nc1cccc(C(F)(F)F)c1)OC(c1ccc(Cl)c(Cl)c1)C1CCN(Cc2ccc(Oc3ccccn3)cc2)CC1 (stereo not drawn) [Compound 650]
Percent Mortality (surface-treated diet): 100% | Percent Growth Inhibition (surface-treated diet): 100%

O=C(Nc1c(Cl)cccc1Cl)OC(c1ccc(C(F)(F)F)cc1)C1CCN(Cc2ccc(Oc3ccccn3)cc2)CC1 (stereo not drawn) [Compound 233]
Percent Mortality (surface-treated diet): 33% | Percent Growth Inhibition (surface-treated diet): 100%

CCNC(=O)Nc1ccc(CN2CCC(C(OC(=O)Nc3cc(F)cc(F)c3)c3ccc(C(F)(F)F)cc3)CC2)cc1 (stereo not drawn) [Compound 517]
Percent Mortality (surface-treated diet): 0% | Percent Growth Inhibition (surface-treated diet): 86%

FC(F)(F)c1ccc(C(Oc2cc(C(F)(F)F)ccn2)C2CCN(Cc3ccc(Oc4ccccn4)cc3)CC2)cc1 (stereo not drawn) [Compound 438]
Percent Mortality (surface-treated diet): 100% | Percent Growth Inhibition (surface-treated diet): 100%

CCn1nnc(-c2ccc(CN3CCC(C(OC(=O)Nc4ccc(Cl)cc4)c4ccc(OC)c(OC)c4)CC3)cc2)n1 (stereo not drawn) [Compound 608]
Percent Mortality (surface-treated diet): 83% | Percent Growth Inhibition (surface-treated diet): 100%

[O-][N+]1(Cc2ccc(Oc3ncccn3)cc2)CCC(=C(c2ccc(Cl)cc2)c2ccc(Cl)cc2)CC1 (stereo not drawn) [Compound 844]
Percent Mortality: 100% | Percent Growth Inhibition: 100%

C#CCOC(=O)Nc1ccc(CN2CCC(=C(c3ccc(Cl)cc3)c3ccc(Cl)cc3)CC2)cc1 [Compound 801]
Percent Mortality: 100% | Percent Growth Inhibition: 100%

O=C(Nc1ccc(C(F)(F)F)cc1)OC(c1ccc(C(F)(F)F)cc1)C1CC[N+]([O-])(Cc2ccc(Oc3ccccn3)cc2)CC1 (stereo not drawn) [Compound 398]
Percent Mortality (surface-treated diet): 100% | Percent Growth Inhibition (surface-treated diet): 100%

O=C(Nc1ccc(Cl)c(C(F)(F)F)c1)OC(c1ccc(C(F)(F)F)cc1)C1CCN(Cc2ccc(Oc3ccccn3)cc2)CC1 (stereo not drawn) [Compound 247]
Percent Mortality (surface-treated diet): 100% | Percent Growth Inhibition (surface-treated diet): 100%

O=C(Nc1cc(F)cc(F)c1)OC(c1ccc(C(F)(F)F)cc1)C1CC[N+]([O-])(Cc2ccc(Oc3ccccc3)cc2)CC1 (stereo not drawn) [Compound 749]
Percent Mortality: 100% | Percent Growth Inhibition: 100%

CC(C)NC(=S)OC(c1ccc(C(F)(F)F)cc1)C1CCN(Cc2ccc(Oc3ccccn3)cc2)CC1 (stereo not drawn) [Compound 777]
Percent Mortality: 67% | Percent Growth Inhibition: 100%

C=CCOC(=O)Nc1ccc(C[N+]2([O-])CCC(=C(c3ccc(C(F)(F)F)cc3)c3ccc(C(F)(F)F)cc3)CC2)cc1 (stereo not drawn) [Compound 836]
Percent Mortality: 100% | Percent Growth Inhibition: 100%

CCCOc1ccc(CN2CCC(C(OC(=O)Nc3cc(F)cc(F)c3)c3cccc(C(F)(F)F)c3)CC2)cc1 (stereo not drawn) [Compound 487]
Percent Mortality (surface-treated diet): 100% | Percent Growth Inhibition (surface-treated diet): 100%

O=C(Nc1cc(C(F)(F)F)cc(C(F)(F)F)c1)OC(c1ccc(C(F)(F)F)cc1)C1CCN(Cc2ccc(Oc3ccccn3)cc2)CC1 (stereo not drawn) [Compound 248]
Percent Mortality (surface-treated diet): 100% | Percent Growth Inhibition (surface-treated diet): 100%
